Here are results for 10 compounds from ChEMBL document CHEMBL1909560, “Design and synthesis of a library of chemokine antagonists” (Bioorg Med Chem Lett, 2011).

C-C chemokine receptor type 2, sequence (P41597 whole entry): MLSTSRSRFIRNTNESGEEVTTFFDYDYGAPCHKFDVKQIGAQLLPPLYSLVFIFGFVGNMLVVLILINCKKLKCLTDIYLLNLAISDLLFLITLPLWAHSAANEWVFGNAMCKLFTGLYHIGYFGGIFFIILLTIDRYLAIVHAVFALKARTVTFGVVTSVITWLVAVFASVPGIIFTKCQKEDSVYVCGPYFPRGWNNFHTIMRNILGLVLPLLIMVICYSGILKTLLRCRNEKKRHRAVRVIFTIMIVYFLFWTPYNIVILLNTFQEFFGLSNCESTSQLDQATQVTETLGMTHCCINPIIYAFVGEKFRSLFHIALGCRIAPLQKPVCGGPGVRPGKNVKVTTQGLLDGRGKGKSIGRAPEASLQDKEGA

The target of the first experiment is T1, C-C chemokine receptor type 3 (Homo sapiens, UniProt P51677).
T1 sequence (P51677 whole entry): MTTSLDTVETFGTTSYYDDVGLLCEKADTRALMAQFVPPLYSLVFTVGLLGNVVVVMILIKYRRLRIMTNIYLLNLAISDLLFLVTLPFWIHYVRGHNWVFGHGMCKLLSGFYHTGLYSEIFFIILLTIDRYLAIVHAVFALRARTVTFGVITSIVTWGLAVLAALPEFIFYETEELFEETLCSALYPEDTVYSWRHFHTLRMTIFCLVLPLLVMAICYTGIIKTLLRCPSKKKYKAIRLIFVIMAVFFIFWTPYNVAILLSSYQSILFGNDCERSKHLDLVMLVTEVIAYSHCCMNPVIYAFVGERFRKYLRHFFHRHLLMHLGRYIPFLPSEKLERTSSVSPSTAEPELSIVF
The experiment in a line: Displacement of [125I]-eotaxin from CCR3 expressed in RBL-2H3 cells by scintillation proximity assay. The experiment is classed as cell-based.
Take `COc1ccc(OC)c(S(=O)(=O)N2CCC(CN3CCC(Cc4ccc(F)cc4)CC3)CC2)c1`: the IC50 turned out to be 1190 nM. That is a single-digit micromolar value.

In turn, `O=C(NCCCCN1CCC(Oc2ccc(F)cc2)C1)Nc1ccc(F)c(F)c1` (configuration not stated) registered an IC50 of 76 nM.

For the compound `COc1ccc(Cl)cc1NC(=O)NCCCCN(C)Cc1ccc(F)cc1`, the IC50 amounted to 82 nM.

In turn, `COc1ccc(OC)c(S(=O)(=O)N2CCC(CN3CCN(Cc4ccc(F)cc4)CC3)CC2)c1` showed an IC50 of 65 nM.

Compound `O=C(NCCCN1CCC(c2ccc(F)cc2)CC1)C1=Cc2cc(Br)ccc2OCC1` had an IC50 of 1000 nM.

A further experiment has as its target C-C chemokine receptor type 2 (Homo sapiens, UniProt P41597). The experiment in a line: Displacement of [125I]-MIP-1alpha 125I]-MCP1 from CCR2 expressed in CHO ducX#98 cells by scintillation proximity assay. Format: cell-based.
In turn, `O=C(NCCCCN1CCC(Cc2ccc(F)cc2)CC1)Nc1ccc(OC(F)(F)F)cc1` returned an IC50 of 1880 nM.

As for `O=C(NCCCN1CCC(c2ccc(F)cc2)CC1)C1=Cc2cc(Br)ccc2OCC1`, the IC50 was found to be 925 nM.

In the next experiment the target is T2, C-C chemokine receptor type 1 (Homo sapiens, UniProt P32246).
T2 sequence (P32246 whole entry): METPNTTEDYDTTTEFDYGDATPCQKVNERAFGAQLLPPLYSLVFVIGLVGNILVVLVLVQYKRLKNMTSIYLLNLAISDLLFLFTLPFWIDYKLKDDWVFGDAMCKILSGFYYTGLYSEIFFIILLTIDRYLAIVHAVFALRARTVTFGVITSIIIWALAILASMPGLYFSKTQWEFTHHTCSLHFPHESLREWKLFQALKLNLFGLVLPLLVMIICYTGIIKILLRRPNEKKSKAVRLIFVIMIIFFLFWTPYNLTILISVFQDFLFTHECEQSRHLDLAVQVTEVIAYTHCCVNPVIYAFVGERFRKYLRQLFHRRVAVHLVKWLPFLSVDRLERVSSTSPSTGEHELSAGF
In words: Displacement of [125I]-MIP-1alpha 125I]-MCP1 from CCR1 expressed in CHO-K1 cells by scintillation proximity assay. The experiment is classed as cell-based.
`O=C(NCCCCN1CCC(Oc2ccc(F)cc2)C1)NCc1ccc(Br)cc1` (configuration not stated) registered an IC50 of 387 nM.

The compound `Cc1noc(C)c1S(=O)(=O)NCCCN1CCC(O)(c2ccc(Cl)cc2)CC1` showed an IC50 of 261 nM.

In another experiment the target is C-C chemokine receptor type 5 (Homo sapiens, UniProt P51681). The experiment in a line: Displacement of [125I]-MIP-1- alpha from CCR5 expressed in CHO K1 cells by scintillation proximity assay. The experiment is classed as cell-based.
C-C chemokine receptor type 5, sequence (P51681 whole entry): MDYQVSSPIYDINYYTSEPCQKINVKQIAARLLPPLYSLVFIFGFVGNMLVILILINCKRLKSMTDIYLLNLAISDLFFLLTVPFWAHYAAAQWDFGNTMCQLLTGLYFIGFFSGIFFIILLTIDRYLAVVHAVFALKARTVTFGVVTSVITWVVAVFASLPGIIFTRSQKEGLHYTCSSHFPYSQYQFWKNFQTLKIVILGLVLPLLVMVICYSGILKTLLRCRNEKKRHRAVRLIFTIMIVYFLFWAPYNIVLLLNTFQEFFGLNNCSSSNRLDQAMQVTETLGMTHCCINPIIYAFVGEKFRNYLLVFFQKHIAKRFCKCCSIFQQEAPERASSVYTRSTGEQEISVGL
Regarding `COc1ccc(OC)c(S(=O)(=O)N2CCC(CN3CCC(Cc4ccc(F)cc4)CC3)CC2)c1`, the IC50 amounted to 2850 nM.

`N#Cc1cccc(C(=O)NCCCN2CCC(COCc3ccc(F)cc3)CC2)c1`: the IC50 was found to be 1000 nM. Compared with the last compound, the IC50 is about 2.9-fold lower.

In turn, `COc1ccc(C)cc1S(=O)(=O)N1CCC(CN2CCC(c3ccc(F)cc3)CC2)CC1` registered an IC50 of 1300 nM.
